Experiment in all cases: NCI anticancer screen, dose series, 48 h
The test system of experiment [1] is 786-0 renal.
Experiment [2] concerns A549 NSCLC.
The test system of experiment [3] is SNB-75 CNS.
Experiment [4] concerns EKVX NSCLC.
In experiment [5] the test system is U251 CNS.
Experiment [6] concerns HCC-2998 colon.
The test system of experiment [7] is COLO 205 colon.
Experiment [8] concerns HCT-116 colon.
In experiment [9] the test system is NCI-H460 lung.
Experiment [10] deals with SR leukemia.

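Cells were grown in 96-well plates and exposed to each compound for 48 hours at five concentrations; endpoints were interpolated linearly between bracketing concentrations, or set to the highest concentration if not reached. Here, GI50 denotes the concentration required for 50% inhibition of growth. TGI marks complete inhibition of growth.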

On to `COc1cc(OCCCN2CCCC2)ccc1Nc1ncc(Cl)c(Nc2ccccc2P(C)(C)=O)n1`, for which the GI50 in experiment [1] was 2.7 µM; in experiment [2], 2.14 µM; in [3], 2.55 µM; in experiment [4] it was 0.828 µM; in [5], 5.43 µM; in [6], 2.65 µM. Further, the GI50 in [7] is 1.08 µM; in [8], 1.74 µM; in experiment [9], 2.47 µM; in experiment [10], 0.0173 µM. Further, the TGI in experiment [1] was 11.6 µM; in experiment [2], 10.6 µM; in experiment [3] it was 11.8 µM; in experiment [4], more than 20.5 µM; in experiment [5] it was 19.8 µM; in experiment [6], 25.7 µM. Besides, the values for the TGI in experiment [7], in experiment [8] and in experiment [9] were 2.81 µM, 7.24 µM and 12 µM, respectively.
As for `Cc1ccc(NC(=O)CCc2nnc3s/c(=C\C=C\c4ccccc4)c(=O)n23)cc1`, the TGI in experiment [1], in [2], in [3], in [4], in experiment [5] and in experiment [6] was more than 100 µM throughout. Also, the TGI in experiment [7] was more than 100 µM; in experiment [8], more than 100 µM; in [9] it was more than 100 µM; in [10], 65.6 µM.
As for `O=C(O)c1nn(-c2ccc(Cl)cc2)c2c1C(=O)c1ccccc1C2=O`, the TGI in [1] was more than 100 µM; in [2] it was more than 100 µM; in experiment [3] it was 62.3 µM; in [4] it was more than 100 µM; in [5] it was more than 100 µM; in [6] it was more than 100 µM. For the same molecule, the TGI in experiment [7] was more than 100 µM; in [8] it was more than 100 µM; in experiment [9], more than 100 µM; in experiment [10], 78.7 µM.
On to `Cn1cnc(SC2=CC(=O)C=C3S[C@H]4C[C@@]23c2c(c(O)c3c5c2=NCCC=5C=N3)N4)c1CC(N)C(=O)O` (stereo partly specified), for which the GI50 in [1] is 13.6 µM; in [4], 19.3 µM; in [5], 18.1 µM; in experiment [6], 13.6 µM; in experiment [7], 1.53 µM; in experiment [8] it was 2.24 µM. Besides, the GI50 in [9] was 16.2 µM; in experiment [10], 20.9 µM. Further, the TGI came to 26.8 µM in experiment [1]; 30.2 µM in [2]; 34.5 µM in experiment [3]; 34.3 µM in experiment [4]; 32 µM in experiment [5]; 26.6 µM in experiment [6]. Further, the TGI in [7] turned out to be 3.01 µM; in experiment [8], 4.88 µM; in experiment [9], 31.6 µM; in experiment [10], 98.9 µM.
On to `O=C(O)C(Cc1ccccc1)N=Cc1nc(-c2ccccc2)oc1O` (stereo unspecified), for which the TGI in [1], in experiment [2], in [3], in [4], in [5] and in [6] was more than 100 µM in each case. In addition, the TGI in experiment [7], in [8], in [9] and in experiment [10] was more than 100 µM in each case.
With `CC1CCCc2c1n[nH]c2CC1CC(=O)NC(=O)C1` (stereo unspecified), the TGI in experiment [1], in [2], in experiment [3], in [4], in experiment [5] and in [6] was more than 100 µM in each case. Besides, the TGI in experiment [7], in experiment [8], in experiment [9] and in [10] was more than 100 µM in each case.
Turning to `Cn1cc(-c2ncnc3ccc(-c4cnc(Cl)c(NS(C)(=O)=O)c4)cc23)c2ccccc21`, the GI50 in [1] was 1.44 µM; in experiment [2] it was 0.814 µM; in experiment [3], 0.127 µM; in experiment [4] it was 0.598 µM; in experiment [5], 1.65 µM; in experiment [6], 0.812 µM. Also, the GI50 in experiment [7] was 0.829 µM; in experiment [8], 2.37 µM; in experiment [9] it was 0.365 µM; in [10] it was 1.24 µM. Besides, the TGI in experiment [1] is more than 100 µM; in experiment [2], 9.41 µM; in experiment [3], 1.98 µM; in experiment [5], 23.4 µM; in experiment [6] it was 13.3 µM; in experiment [7] it was 13.1 µM. For the same molecule, the figures for the TGI in experiment [8], in experiment [9] and in experiment [10] were 98.1 µM, more than 100 µM and more than 35.9 µM, respectively.
As to `C=CCC1(CN(C)C)CC/C(=C\c2cc(OC)c(OC)c(OC)c2)C1=O` (stereo unspecified), the TGI was 39.3 µM in experiment [1]; more than 100 µM in experiment [2]; more than 100 µM in experiment [3]; 61.4 µM in experiment [4]; 59.5 µM in experiment [5]; 35.5 µM in experiment [6]. For the same molecule, the TGI was determined as 31.3 µM in [7], 31.3 µM in [8], 36.9 µM in experiment [9] and 49.1 µM in experiment [10].
Turning to `CCCC(=O)Oc1ccc(/C=N/NC(N)=S)nc1`, the TGI in experiment [1], in experiment [2], in experiment [3], in [4], in experiment [5] and in experiment [6] was more than 100 µM in each case. In addition, the TGI in experiment [7], in experiment [8], in experiment [9] and in [10] was more than 100 µM throughout.
For the molecule `CCC(CO)Nc1nc(NCc2ccccc2)c2n[nH]c(C(C)C)c2n1` (stereo unspecified), the GI50 in experiment [1] was 6.68 µM; in experiment [2] it was 12 µM; in experiment [3], 11.4 µM; in experiment [4], 12.1 µM; in experiment [5], 11.4 µM; in [6] it was 12.6 µM. Further, the GI50 in [7] was 4.45 µM; in experiment [8], 4.03 µM; in experiment [9], 4.94 µM; in [10], 3.24 µM. Moreover, the TGI in [1] stood at 21.5 µM; in [2], 46.4 µM; in [3] it was 25.4 µM; in [4], 27.4 µM; in experiment [5] it was 25.3 µM; in experiment [6], 26 µM. The TGI in experiment [7] amounted to 17.1 µM; in [8], 14.5 µM; in [9], 19.4 µM; in experiment [10], 10.6 µM.
